Assays:
[1] = Soil test (potting soil/sand, tap water) for release profile; assay type: physicochemical
Text: To further explore behavior of the IER-AAI complex in conditions found in the soil, a soil test was developed to mimic in-vivo conditions by mixing potting soil with sand, based on the understanding that most soil in the field is not of the same quality as premium potting soil, but instead typically contains more clay or sand. The samples run through the soil test were WG01, WG02, WG05-WG10.
In this experiment, potting soil was mixed with sand in a 19:31 ratio. Then the desired amount of IER-AAI complex (the amount of resin that would allow the total AAI to be 25 mg) was mixed homogenously in with the soil. The Buchner funnel was fitted with filter paper and the filter paper was wet with a little bit of tap water. The Buchner funnel was then placed in an Erlenmeyer flask with a side arm fitted with a rubber adaptor. The side arm was hooked up to a vacuum and the vacuum turned on. Next, the sand/soil/IER-AAI mixture was poured into the Buchner funnel. 10 mL of tap water was poured evenly over the sand/soil/IER-AAI mixture and flooding was observed. Once the water drained into the Erlenmeyer flask, the Buchner funnel was removed and the water transferred into a glass vial. The Buchner funnel was replaced back on the Erlenmeyer flask, the vacuum turned back on, and another 10 mL of tap water was poured evenly over the sand/soil/IER-AAI mixture. This process was repeated until 10×10 mL fractions were collected. Each fraction was then analyzed for UV absorbance at 200-400 nm using a ThermoScientific model Evolution 201, diluting samples when necessary. Comparing the absorbance values against a calibration curve, the amount of AAI in each fraction was calculated.
The percent loading and release profile for each AAI was obtained based on the protocols described in Examples 14 and 15 respectively, except that the AAI content was held constant at 20 mg instead of 25 mg.

[2] = Sand column test, release of chloramben with DI water then 2M NaOH; assay type: physicochemical; details: for release profile in sand column (FIG. 1): result in words
Text: To assess the extended release properties of our WDG and HSC formulations (prepared in accordance with Example 7) we employed a sand column method as described below, where the results of the sand column test can be extrapolated to represent in vivo soil conditions.
Sand column tests were run first with water and then with a 2M NaOH ionic solution. […] The rest of the sand column tests were then run with 2M NaOH; we selected the hydroxyl ion as a representative anion to illustrate the release of the AAI through ion exchange.
First, the sand to be used in the sand column was weighed out into a centrifuge tube. Then the sand was wetted with DI water until flowable and vortexed to mix. Next, the sand was introduced into a Lab-Crest Buret fitted with a Stopcock. DI water was then passed through the sand column to remove any sand that had stuck to the side of the buret. Excess water was drained, until the water level was just at the top of the sand. In a separate small centrifuge tube, the sand was mixed with the experimental sample, and this mixture was added to the top of the sand column. Chloramben control and samples formulated as WG01, WG02, and HSC01 (as described above) were tested.
For each Sample, the experiment was conducted as follows. […] 7×10 mL fractions were collected from the column in appropriately sized culture tubes at 10 mL fractions. The stopcock was closed as the water level reached the top of the sand. […] 7×10 mL fractions were collected in appropriately sized culture tubes. Each fraction was then analyzed for UV absorbance at 200-400 nm using a ThermoScientific model Evolution 201, diluting samples when necessary. Comparing the absorbance values against a calibration curve, the amount of AAI in each fraction was calculated.
The results of these experiments are shown in the graph in FIG. 1.
Fractions 1-7 were run with deionized water flushing through the column, while fractions 8-14 were run with 2 M NaOH flushing through the column. The arrow indicates where the changeover from DI water to NaOH occurred. […] Only when there was a counterion present for exchange (i.e. OH^− in the NaOH), did the chloramben in the test samples start to release more quickly.

[3] = nicosulfuron, 20 mg total AAI, FIG. 7
[4] = gibberellic acid, 20 mg total AAI, FIG. 9
[5] = imidacloprid, 20 mg total AAI, FIG. 8
[6] = benzoic acid, 25 mg total AAI, 10x10 mL tap water, FIG. 2
[7] = benzoic acid, 25 mg total AAI, 10x10 mL tap water, FIG. 3
[8] = benzoic acid, 25 mg total AAI, HSC comparison, FIG. 5
[9] = dicamba, 20 mg total AAI, FIG. 6
[10] = control, no eluent named in head
[11] = whole run, DI water then 2M NaOH, same value under both heads
[12] = chloramben, 25 mg total AAI, 10x10 mL tap water, FIG. 4

For `COc1cc(OC)nc(NC(=O)NS(=O)(=O)c2ncccc2C(=O)N(C)C)n1` [NSN Control, Nicosulfuron], the “Percent Release” value [1, 3] was 52% and the “Total AAI Released” value [1, 3] was 10 mg.

In the case of `C=C1C[C@]23C[C@@]1(O)CC[C@H]2[C@@]12C=C[C@H](O)[C@@](C)(C(=O)O1)[C@H]2[C@@H]3C(=O)O` [GA Control, Gibberellic Acid], the “Percent Release” value [1, 4] was 99% and the “Total AAI Released” value [1, 4] was 20 mg.

For `O=[N+]([O-])NC1=NCCN1Cc1ccc(Cl)nc1` [ICD Control, Imidacloprid], the “Percent Release” value [1, 5] was 98% and the “Total AAI Released” value [1, 5] was 20 mg.

For `O=C(O)c1ccccc1` [Benzoic Acid Control, Benzoic acid], the “Percent Released” value [1, 6] was 97%, the “Total AAI Released” value [1, 6] was 24 mg and the “Percent Release” value [1, 7] was 97%. For the same molecule, the “Total AAI Released” value [1, 7] was 24 mg, the “Percent Release” value [1, 8] was 97% and the “Total AAI Released” value [1, 8] was 24 mg.

With `COc1c(Cl)ccc(Cl)c1C(=O)O` [Dicamba Control, Dicamba] the “Percent Release” value [1, 9] was 100% and the “Total AAI Released” value [1, 9] was 20 mg.

With `Nc1cc(Cl)cc(C(=O)O)c1Cl` [Chloramben Control, Chloramben] the “% chloramben released in first two fractions” value [2, 10] was 44%, the “Total mg chloramben released” value [2, 10] was 20.92 mg and the “release profile in sand column (FIG. 1)” value [2] was “released more quickly”. The “release profile in sand column (FIG. 1)” value ([2]; listed as control chloramben powder) was “released very quickly”, the “% chloramben remaining” value [2, 11] was 30% and the “% total chloramben released” value [2, 11] was 70%. The “Percent Release” value [1, 12] was 71% and the “Total AAI Released” value [1, 12] was 18 mg.

From US20170332627A1, “AGROCHEMICAL RESINATES FOR AGRICULTURAL APPLICATIONS” (priority 2014, published 2017)
